Measurements reported in patent US7868135B2, “Compositions of lipopeptide antibiotic derivatives and methods of use thereof” (priority 2003, dated 2011).
Marks after values point to notes of the source that are not given here. Starred links: 1 amine or outer side, 2 acyl side, 3 side chain; linkers in the order of their positions; H or OH if unused. Positions of bridges follow the written chain, without caps; N, C: chain ends. Non-standard residues stand in square brackets, D forms with d. Residues, ends and D or L forms follow the SMILES beside them. Groups on a side chain read outwards from the residue. ξ: configuration not given here. *: point of attachment. X14 = CC(NC(=O)[C@@H](N)CNC(=O)CCN)C(N[*:1])C(=O)[*:2]; X15 = CC(NC(=O)CCNC(N)=O)C(N[*:1])C(=O)[*:2]; ξAbu(3ξ-NHCOCH2NH2) = CC(NC(=O)CN)C(N)C(=O)O; ξAbu(βξ-NH2) = CC(N[*:3])C(N[*:1])C(=O)[*:2]; Phac(3-amino) = O=C(Cc1cccc(N[*:1])c1)[*:2]; Pentadecanoyl = CCCCCCCCCCCCCCC(=O)*; X8 = O=C(/C=C/c1ccc(N[*:1])cc1)[*:2]; Stearoyl = CCCCCCCCCCCCCCCCCC(=O)*; ξAsp(βξ-Me) = CC(C(=O)O)C(N)C(=O)O; Tridecanoyl = CCCCCCCCCCCCC(=O)*; X1 = O=C(Cc1ccc(N[*:1])cc1)[*:2]; X13 = O=C(CCCCCCCCCCOc1ccccc1)*; ξAbu(3ξ-NH2) = CC(N)C(N)C(=O)O; Undecanoyl = CCCCCCCCCCC(=O)*; Lauroyl = CCCCCCCCCCCC(=O)*; 3Abz = Nc1cccc(C(=O)O)c1; Octanoyl = CCCCCCCC(=O)*; Dab = NCC[C@H](N)C(=O)O; Pip = O=C(O)[CH]1CCCCN1; ξD = NC(CC(=O)O)C(=O)O; ξPip = O=C(O)C1CCCCN1; ξV = CC(C)C(N)C(=O)O; ξP = O=C(O)C1CCCN1; Sar = CNCC(=O)O

The compounds below were run on Staphylococcus aureus (MSSA). Conditions: 24 h.
Procedure, shortened: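 Broth microdilution MIC per NCCLS M7-A6 with doubling serial dilutions, in cation-adjusted Mueller-Hinton broth supplemented with 0.625 mM calcium.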

Row | Compound | MIC
1 | CCCCCCCCCCCCCCC(=O)NC(CC(=O)O)C(=O)NC1C(=O)N2CCCCC2C(=O)NC(C(C)C(=O)O)C(=O)NC(CC(=O)O)C(=O)NCC(=O)NC(CC(=O)O)C(=O)NCC(=O)NC(C(C)NC(=O)[C@@H](N)CC#N)C(=O)NC(C(C)C)C(=O)N2CCCC2C(=O)NC1C (stereo partly drawn) [Compound 35, C15-Amphomycin-9-(β-Cyano-Ala)] | 8 to 16 µg/mL
2 | CCCCCCCCCC(=O)Nc1ccc(C(=O)NC(CC(=O)O)C(=O)NC2C(=O)N3CCCCC3C(=O)NC(C(C)C(=O)O)C(=O)NC(CC(=O)O)C(=O)NCC(=O)NC(CC(=O)O)C(=O)NCC(=O)NC(C(C)N)C(=O)NC(C(C)C)C(=O)N3CCCC3C(=O)NC2C)cc1 (stereo not drawn) [Compound 283, C10-PABA-Amphomycin] | 2 µg/mL
3 | CCCCCCCCCCCCCCC(=O)NC(CC(=O)O)C(=O)NC1C(=O)N2CCCCC2C(=O)NC(C(C)C(=O)O)C(=O)NC(CC(=O)O)C(=O)NCC(=O)NC(CC(=O)O)C(=O)NCC(=O)NC(C(C)NC(=O)[C@@H](N)c2ccccc2)C(=O)NC(C(C)C)C(=O)N2CCCC2C(=O)NC1C (stereo partly drawn) [Compound 41, C15-Amphomycin-9-Phg] | 4 µg/mL
4 | CCCCCCCCCCCCCCC(=O)NC(CC(=O)O)C(=O)NC1C(=O)N2CCCCC2C(=O)NC(C(C)C(=O)O)C(=O)NC(CC(=O)O)C(=O)NCC(=O)NC(CC(=O)O)C(=O)NCC(=O)NC(C(C)NC(=O)[C@@H](N)Cc2ccc(OC)cc2)C(=O)NC(C(C)C)C(=O)N2CCCC2C(=O)NC1C (stereo partly drawn) [Compound 52, C15-Amphomycin-9-Tyr(Me)] | 16 µg/mL
5 | CCCCCCCCCCCCC(=O)Nc1ccc(CC(=O)NC(CC(=O)O)C(=O)NC2C(=O)N3CCCCC3C(=O)NC(C(C)C(=O)O)C(=O)NC(CC(=O)O)C(=O)NCC(=O)NC(CC(=O)O)C(=O)NCC(=O)NC(C(C)N)C(=O)NC(C(C)C)C(=O)N3CCCC3C(=O)NC2C)cc1 (stereo not drawn) [Compound 300, C13-(p-Apa)-Amphomycin] (Tridecanoyl-[X1]D[ξAbu(βξ-NH2)][Pip][ξAsp(βξ-Me)]DGDG[ξAbu(3ξ-NH2)]VP; lactam 3-C; configuration not given here) | 0.225 µg/mL
6 | CCCCCCCCCCCCCCC(=O)NC(CC(=O)O)C(=O)NC1C(=O)N2CCCCC2C(=O)NC(C(C)C(=O)O)C(=O)NC(CC(=O)O)C(=O)NCC(=O)NC(CC(=O)O)C(=O)NCC(=O)NC(C(C)NC(=O)CCCCCCCCCCOc2ccccc2)C(=O)NC(C(C)C)C(=O)N2CCCC2C(=O)NC1C (stereo not drawn) [Compound 348, C15-Amphomycin-9-(11-Phenoxyundecanoyl)] (Pentadecanoyl-D[ξAbu(βξ-NH2)][Pip][ξAsp(βξ-Me)]DGDG[ξAbu(βξ-NH2)](X13)VP; lactam 2-C; configuration not given here) | >64 µg/mL
7 | CCCCCCCCCCCC(=O)Nc1ccc(/C=C/C(=O)NC(CC(=O)O)C(=O)NC2C(=O)N3CCCCC3C(=O)NC(C(C)C(=O)O)C(=O)NC(CC(=O)O)C(=O)NCC(=O)NC(CC(=O)O)C(=O)NCC(=O)NC(C(C)NC(=O)CN)C(=O)NC(C(C)C)C(=O)N3CCCC3C(=O)NC2C)cc1 (stereo not drawn) [Compound 89, C12-(p-Trans-Cinnamyl)-Amphomycin-9-Gly] (Lauroyl-[X8]D[ξAbu(βξ-NH2)][Pip][ξAsp(βξ-Me)]DGDG[ξAbu(3ξ-NHCOCH2NH2)]VP; lactam 3-C; configuration not given here) | 0.5 to 1 µg/mL
8 | CCCCCCCCCCCCC(=O)Nc1cccc(C(=O)NC(CC(=O)O)C(=O)NC2C(=O)N3CCCCC3C(=O)NC(C(C)C(=O)O)C(=O)NC(CC(=O)O)C(=O)NCC(=O)NC(CC(=O)O)C(=O)NCC(=O)NC(C(C)N)C(=O)NC(C(C)C)C(=O)N3CCCC3C(=O)NC2C)c1 (stereo not drawn) [Compound 297, C13-(M-Aminobenzoyl)-Amphomycin] ({Tridecanoyl-3Abz}-D[ξAbu(βξ-NH2)][Pip][ξAsp(βξ-Me)]DGDG[ξAbu(3ξ-NH2)]VP; lactam 2-C; configuration not given here) | 0.25 µg/mL
9 | CCCCCCCCCCCCCCC(=O)NC(CC(=O)O)C(=O)NC1C(=O)N2CCCCC2C(=O)NC(C(C)C(=O)O)C(=O)NC(CC(=O)O)C(=O)NCC(=O)NC(CC(=O)O)C(=O)NCC(=O)NC(C(C)NC(=O)CCNC(N)=O)C(=O)NC(C(C)C)C(=O)N2CCCC2C(=O)NC1C (stereo not drawn) [Compound 212, C15-Amphomycin-9-(Carbamoyl-β-Ala)] (Pentadecanoyl-D[ξAbu(βξ-NH2)][Pip][ξAsp(βξ-Me)]DGDG[X15]VP; lactam 2-C; configuration not given here) | 1 µg/mL
10 | CCCCCCCC(=O)Nc1cccc(CC(=O)NC(CC(=O)O)C(=O)NC2C(=O)N3CCCCC3C(=O)NC(C(C)C(=O)O)C(=O)NC(CC(=O)O)C(=O)NCC(=O)NC(CC(=O)O)C(=O)NCC(=O)NC(C(C)N)C(=O)NC(C(C)C)C(=O)N3CCCC3C(=O)NC2C)c1 (stereo not drawn) [Compound 361, C8-(M-Apa)-Amphomycin] (Octanoyl-[Phac(3-amino)]D[ξAbu(βξ-NH2)][Pip][ξAsp(βξ-Me)]DGDG[ξAbu(3ξ-NH2)]VP; lactam 3-C; configuration not given here) | >64 µg/mL
11 | CCCCCCCCCCCCCCC(=O)NC(CC(=O)O)C(=O)NC1C(=O)N2CCCCC2C(=O)NC(C(C)C(=O)O)C(=O)NC(CC(=O)O)C(=O)NCC(=O)NC(CC(=O)O)C(=O)NCC(=O)NC(C(C)NC(=O)[C@@H](N)CCCC)C(=O)NC(C(C)C)C(=O)N2CCCC2C(=O)NC1C (stereo partly drawn) [Compound 171, C15-Amphomycin-9-Nle] | 8 µg/mL
12 | CCCCCCCCCCC(=O)N[C@@H](CC(=O)OC)C(=O)NC(CC(=O)O)C(=O)NC1C(=O)N2CCCCC2C(=O)NC(C(C)C(=O)O)C(=O)NC(CC(=O)O)C(=O)NCC(=O)NC(CC(=O)O)C(=O)NCC(=O)NC(C(C)N)C(=O)NC(C(C)C)C(=O)N2CCCC2C(=O)NC1C (stereo partly drawn) [Compound 316, C11-(Asp-(OMe))-Amphomycin] (Undecanoyl-D(OMe)[ξD][ξAbu(βξ-NH2)][ξPip][ξAsp(βξ-Me)][ξD]G[ξD]G[ξAbu(3ξ-NH2)][ξV][ξP]; lactam 3-C) | >64 µg/mL
13 | CCCCCCCCCCCNC(=O)NCCC(=O)NC(CC(=O)O)C(=O)NC1C(=O)N2CCCCC2C(=O)NC(C(C)C(=O)O)C(=O)NC(CC(=O)O)C(=O)NCC(=O)NC(CC(=O)O)C(=O)NCC(=O)NC(C(C)N)C(=O)NC(C(C)C)C(=O)N2CCCC2C(=O)NC1C (stereo not drawn) [Compound 286, CH3—(CH2)10—NH—C(═O)-(β-Ala)-Amphomycin] | 2 µg/mL
14 | CCCCCCCCCCCC(=O)NC(CC(=O)O)C(=O)NC1C(=O)N2CCCCC2C(=O)NC(C(C)C(=O)O)C(=O)NC(CC(=O)O)C(=O)NCC(=O)NC(CC(=O)O)C(=O)NCC(=O)NC(C(C)N)C(=O)NC(C(C)C)C(=O)N2CCCC2C(=O)NC1C (stereo not drawn) [Compound 8, C12-Amphomycin] | 4 to 8 µg/mL
15 | CCCCCCCCCCCC(=O)Nc1ccc(/C=C/C(=O)NC(CC(=O)O)C(=O)NC2C(=O)N3CCCCC3C(=O)NC(C(C)C(=O)O)C(=O)NC(CC(=O)O)C(=O)NCC(=O)NC(CC(=O)O)C(=O)NCC(=O)NC(C(C)N)C(=O)NC(C(C)C)C(=O)N3CCCC3C(=O)NC2C)cc1 (stereo not drawn) [Compound 120, C12-(p-Amino-Trans-Cinnamyl)-Amphomycin] (Lauroyl-[X8]D[ξAbu(βξ-NH2)][Pip][ξAsp(βξ-Me)]DGDG[ξAbu(3ξ-NH2)]VP; lactam 3-C; configuration not given here) | 0.5 µg/mL
16 | CCCCCCCCCCCCCCC(=O)NC(CC(=O)O)C(=O)NC1C(=O)N2CCCCC2C(=O)NC(C(C)C(=O)O)C(=O)NC(CC(=O)O)C(=O)NCC(=O)NC(CC(=O)O)C(=O)NCC(=O)NC(C(C)NC(=O)CN(C)C(=O)[C@@H](N)CCN)C(=O)NC(C(C)C)C(=O)N2CCCC2C(=O)NC1C (stereo partly drawn) [Compound 145, C15-Amphomycin-9-Sar-gDab] (Pentadecanoyl-[ξD][ξAbu(βξ-NH2)][ξPip][ξAsp(βξ-Me)][ξD]G[ξD]G[ξAbu(βξ-NH2)]([Sar-Dab])[ξV][ξP]; lactam 2-C) | 2 µg/mL
17 | CCCCCCCCCCCCCCCCCC(=O)NCC(=O)NC(CC(=O)O)C(=O)NC1C(=O)N2CCCCC2C(=O)NC(C(C)C(=O)O)C(=O)NC(CC(=O)O)C(=O)NCC(=O)NC(CC(=O)O)C(=O)NCC(=O)NC(C(C)N)C(=O)NC(C(C)C)C(=O)N2CCCC2C(=O)NC1C (stereo not drawn) [Compound 107, C18-Gly-Amphomycin] (Stearoyl-GD[ξAbu(βξ-NH2)][Pip][ξAsp(βξ-Me)]DGDG[ξAbu(3ξ-NH2)]VP; lactam 3-C; configuration not given here) | 2 µg/mL
18 | CCCCCCCCCCCCCCC(=O)NC(CC(=O)O)C(=O)NC1C(=O)N2CCCCC2C(=O)NC(C(C)C(=O)O)C(=O)NC(CC(=O)O)C(=O)NCC(=O)NC(CC(=O)O)C(=O)NCC(=O)NC(C(C)NC(=O)CCCCCCCCCCCCCC)C(=O)NC(C(C)C)C(=O)N2CCCC2C(=O)NC1C (stereo not drawn) [Compound 342, C15-Amphomycin-9-C15] | >64 µg/mL
19 | CCCCCCCCCCCCCCC(=O)NC(CC(=O)O)C(=O)NC1C(=O)N2CCCCC2C(=O)NC(C(C)C(=O)O)C(=O)NC(CC(=O)O)C(=O)NCC(=O)NC(CC(=O)O)C(=O)NCC(=O)NC(C(C)NC(=O)[C@@H](N)Cc2c[nH]c3ccccc23)C(=O)NC(C(C)C)C(=O)N2CCCC2C(=O)NC1C (stereo partly drawn) [Compound 40, C15-Amphomycin-9-Trp] | 32 to 64 µg/mL
20 | CCCCCCCCCCCCCCC(=O)Nc1cccc(CC(=O)NC(CC(=O)O)C(=O)NC2C(=O)N3CCCCC3C(=O)NC(C(C)C(=O)O)C(=O)NC(CC(=O)O)C(=O)NCC(=O)NC(CC(=O)O)C(=O)NCC(=O)NC(C(C)N)C(=O)NC(C(C)C)C(=O)N3CCCC3C(=O)NC2C)c1 (stereo not drawn) [Compound 310, C15-(M-Apa)-Amphomycin] (Pentadecanoyl-[Phac(3-amino)]D[ξAbu(βξ-NH2)][Pip][ξAsp(βξ-Me)]DGDG[ξAbu(3ξ-NH2)]VP; lactam 3-C; configuration not given here) | 1 µg/mL
21 | CCCCCCCCCCCCCCC(=O)NC(CC(=O)O)C(=O)NC1C(=O)N2CCCCC2C(=O)NC(C(C)C(=O)O)C(=O)NC(CC(=O)O)C(=O)NCC(=O)NC(CC(=O)O)C(=O)NCC(=O)NC(C(C)NC(=O)[C@@H](N)CNC(=O)CCN)C(=O)NC(C(C)C)C(=O)N2CCCC2C(=O)NC1C (stereo partly drawn) [Compound 200, C15-Amphomycin-9-Dap-(β-N-(β-Ala))] (Pentadecanoyl-[ξD][ξAbu(βξ-NH2)][ξPip][ξAsp(βξ-Me)][ξD]G[ξD]G[X14][ξV][ξP]; lactam 2-C) | 1 µg/mL

Same assay, conditions: S. aureus (MSSA), CAMHB supplemented with 0.625 mM calcium, 24 hours at about 37° C.; a range = compound tested multiple times

Row | Compound | MIC
22 | C14-Amphomycin-9-gDab [Compound 139] | 139/4 μg/mL
23 | β-Isomer of CH3—(CH2)10—NH—C(═O)-(GABA)-Amphomycin [Compound 330] | >64^† μg/mL
24 | (12-Methyl-Tetradec-2-Enoyl)-Aspartocin-9-Sar [Compound 371] | 0.5 µg/mL
